# From ChEMBL document CHEMBL5053556, “Design, Synthesis, and Biological Evaluation of a Novel Series of Teriflunomide Derivatives as Potent Human Dihydroorotate Dehydrogenase Inhibitors for Malignancy Treatment” (J Med Chem, 2021)
# Assays:
# HEL = assay: Antiproliferative activity against human HEL cells assessed as cell growth inhibition incubated for 96 hrs by MTT assay; assay type: functional, cell-based
# L02 = assay: cells; assay type: ADME, cell-based; conditions: Homo sapiens, L02, 96 h
# Description: Cytotoxicity against human L02 cells assessed as cell growth inhibition incubated for 96 hrs by MTT assay
# [1] = Microsomal stability in mouse liver microsomes assessed as half life at 1 uM measured upto 120 mins in presence of NADPH by LC-MS analysis; assay type: ADME, Microsome
# [2] = Clearance in Sprague-Dawley rat at 5 mg/kg, iv measured after 48 hrs by LC-MS analysis; assay type: ADME, organism-based; conditions: in vivo, iv, 5 mg/kg, 48 h
# Raji [3] = assay: Antiproliferative activity against human Raji cells assessed as cell growth inhibition incubated for 96 hrs by MTT assay; assay type: functional, cell-based
# Raji [4] = assay: Induction of cell cycle arrest in human Raji cells assessed as accumulation of cells at S phase at 0.5 uM after 24 hrs by propidium iodide staining based flow cytometric analysis (reference value: 45.7%); assay type: functional
# [5] = AUC(0 to t) in Sprague-Dawley rat at 5 mg/kg, iv measured after 48 hrs by LC-MS analysis; assay type: ADME, organism-based; parameters: time 48 hrs, dose 5 mg/kg, route iv; conditions: in vivo, 48 h
# [6] = target: T1, Dihydroorotate dehydrogenase (quinone), mitochondrial (Homo sapiens, UniProt Q02127); conditions: dose 100.0 nM, time 30.0 min
# [7] = Acute toxicity in BALB/c mouse assessed as effect on kidney at 400 mg/kg, po measured on day 14 by H and E staining based assay; assay type: organism-based; conditions: in vivo, 336 h, time 14 day
# THP-1 = assay: Antiproliferative activity against human THP-1 cells assessed as cell growth inhibition incubated for 96 hrs by MTT assay; assay type: functional, cell-based; conditions: THP-1, 96 h
# [8] = Tmax in Sprague-Dawley rat at 15 mg/kg, po measured after 48 hrs by LC-MS analysis; assay type: ADME, organism-based; conditions: in vivo
# [9] = target: T1, Dihydroorotate dehydrogenase (quinone), mitochondrial
# Description: Inhibition of human DHODH using dihydroorotate substrate preincubated for 30 mins followed by substrate addition by DCIP based microplate reader analysis
# [10] = Acute toxicity in BALB/c mouse assessed as effect on lung at 400 mg/kg, po measured on day 14 by H and E staining based assay; assay type: organism-based; conditions: in vivo, 336 h, time 14 day
# SUD4 = assay: Antiproliferative activity against human SU-DHL-4 cells assessed as cell growth inhibition incubated for 96 hrs by MTT assay; assay type: functional, cell-based; conditions: SU-DHL-4, 96 h
# [11] = Drug distribution in NOD-SCID mouse kidney at 40 mg/kg, po administered for 25 days by LC-MS analysis; assay type: ADME, organism-based; conditions: in vivo, 600 h, time 25 day
# [12] = Acute toxicity in BALB/c mouse assessed as effect on spleen at 400 mg/kg, po measured on day 14 by H and E staining based assay; assay type: organism-based; conditions: in vivo, 336 h, time 14 day
# [13] = Oral bioavailability in Sprague-Dawley rat at 15 mg/kg measured after 48 hrs by LC-MS analysis; assay type: ADME, organism-based; conditions: in vivo
# Raji [14] = assay: Antiproliferative activity against human Raji cells assessed as cell growth inhibition at 0.4 uM incubated for 96 hrs by MTT assay; assay type: functional; parameters: scale not given: the % may be the effect or the level left
# Raji [15] = assay: Induction of cell cycle arrest in human Raji cells assessed as accumulation of cells at S phase at 0.125 uM after 24 hrs by propidium iodide staining based flow cytometric analysis (reference value: 45.7%); assay type: functional
# [16] = Plasma protein binding in rat at 0.1 uM incubated for 5 hrs by LC-MS analysis; assay type: ADME, cell-free; conditions: read-out: PPB (converted)
# Raji [17] = assay: Antiproliferative activity against human Raji cells assessed as cell growth inhibition at 0.4 uM preincubated with uridine for 24 hrs followed by compound addition and measured after 72 hrs by MTT assay; assay type: functional; parameters: scale not given: the % may be the effect or the level left
# Daudi = assay: Antiproliferative activity against human Daudi cells assessed as cell growth inhibition incubated for 96 hrs by MTT assay; assay type: functional, cell-based
# Mus musculus [18] = assay: Toxicity in NOD-SCID mouse xenografted with human Raji cells assessed as change in UREAL at 40 mg/kg, po administered for 25 days; assay type: organism-based; conditions: in vivo, 600 h, time 25 day
# Raji [19] = assay: Induction of cell cycle arrest in human Raji cells assessed as accumulation of cells at S phase at 0.25 uM after 24 hrs by propidium iodide staining based flow cytometric analysis (reference value: 45.7%); assay type: functional
# MV4-11 = assay: Antiproliferative activity against human MV4-11 cells assessed as cell growth inhibition incubated for 96 hrs by MTT assay; assay type: functional, cell-based; conditions: MV4-11, 96 h
# Raji [20] = assay: Antitumor activity against human Raji cells xenografted in NOD-SCID mouse assessed as tumor growth inhibition at 30 mg/kg, po administered for 25 days; assay type: functional; conditions: 600 h, time 25 day, read-out: TGI
# Mus musculus [21] = assay: Toxicity in NOD-SCID mouse xenografted with human Raji cells assessed as change in AST level at 40 mg/kg, po administered for 25 days; assay type: organism-based; conditions: in vivo, 600 h, time 25 day
# Raji [22] = assay: Antiproliferative activity against human Raji cells assessed as cell growth inhibition at 0.1 uM preincubated with uridine for 24 hrs followed by compound addition and measured after 72 hrs by MTT assay; assay type: functional; parameters: scale not given: the % may be the effect or the level left
# [23] = Drug distribution in NOD-SCID mouse tumor at 40 mg/kg, po administered for 25 days by LC-MS analysis; assay type: ADME, organism-based, Neoplasm; conditions: in vivo, 600 h, time 25 day
# Mus musculus [24] = assay: Toxicity in NOD-SCID mouse xenografted with human Raji cells assessed as change in ALT level at 40 mg/kg, po administered for 25 days; assay type: organism-based; conditions: in vivo, 600 h, time 25 day
# [25] = Half life in Sprague-Dawley rat at 15 mg/kg, po measured after 48 hrs by LC-MS analysis; assay type: ADME, organism-based; conditions: in vivo
# SU-DHL-6 = assay: Antiproliferative activity against human SU-DHL-6 cells assessed as cell growth inhibition incubated for 96 hrs by MTT assay; assay type: functional, cell-based; conditions: SU-DHL-6, 96 h
# Raji [26] = assay: Antiproliferative activity against human Raji cells assessed as cell growth inhibition at 0.06 uM preincubated with uridine for 24 hrs followed by compound addition and measured after 72 hrs by MTT assay; assay type: functional; parameters: scale not given: the % may be the effect or the level left
# [27] = Acute toxicity in BALB/c mouse assessed as effect on heart at 400 mg/kg, po measured on day 14 by H and E staining based assay; assay type: organism-based; conditions: in vivo, 336 h, time 14 day
# Raji [28] = assay: Antitumor activity against human Raji cells xenografted in NOD-SCID mouse assessed as tumor growth inhibition at 40 mg/kg, po administered for 25 days; assay type: functional; conditions: 600 h, time 25 day, read-out: TGI
# [29] = Acute toxicity in BALB/c mouse assessed change in behavior at 400 mg/kg, po; assay type: organism-based; conditions: in vivo
# [30] = Half life in Sprague-Dawley rat at 5 mg/kg, iv measured after 48 hrs by LC-MS analysis; assay type: ADME, organism-based; conditions: in vivo
# [31] = Cmax in Sprague-Dawley rat at 15 mg/kg, po measured after 48 hrs by LC-MS analysis; assay type: ADME, organism-based; parameters: dose 15 mg/kg, time 48 hrs, route po; conditions: in vivo
# HL-60 = assay: Antiproliferative activity against human HL-60 cells assessed as cell growth inhibition incubated for 96 hrs by MTT assay; assay type: functional, cell-based; conditions: HL-60, 96 h
# [32] = Clearance in Sprague-Dawley rat at 15 mg/kg, po measured after 48 hrs by LC-MS analysis; assay type: ADME, organism-based; conditions: in vivo
# Raji [33] = assay: Antiproliferative activity against human Raji cells assessed as cell growth inhibition at 0.2 uM incubated for 96 hrs by MTT assay; assay type: functional; parameters: scale not given: the % may be the effect or the level left
# [34] = Acute toxicity in BALB/c mouse assessed as effect on liver at 400 mg/kg, po measured on day 14 by H and E staining based assay; assay type: organism-based; conditions: in vivo, 336 h, time 14 day
# T1 sequence (Q02127 whole entry): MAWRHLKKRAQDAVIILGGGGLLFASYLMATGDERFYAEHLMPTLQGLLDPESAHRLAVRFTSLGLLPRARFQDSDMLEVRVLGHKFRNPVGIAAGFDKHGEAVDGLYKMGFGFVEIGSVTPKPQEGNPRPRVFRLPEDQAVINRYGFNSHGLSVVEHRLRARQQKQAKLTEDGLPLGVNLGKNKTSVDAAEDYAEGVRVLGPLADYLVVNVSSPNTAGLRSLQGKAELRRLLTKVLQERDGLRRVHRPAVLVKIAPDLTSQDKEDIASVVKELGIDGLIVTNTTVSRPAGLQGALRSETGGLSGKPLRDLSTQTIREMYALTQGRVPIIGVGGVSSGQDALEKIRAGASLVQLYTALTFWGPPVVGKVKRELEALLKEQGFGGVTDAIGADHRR
smiles,measurement,setting,value
C/C(O)=C(\C#N)C(=O)Nc1cc(O[C@@H](C)C(F)(F)F)c(C(=O)Nc2c(F)cccc2F)cc1F,IC50,HEL,20 nM
same,IC50,L02,518 nM
same,half-life at 1 µM,[1],8.25 h
same,CL,[2],10 mL/min/kg
same,IC50,Raji [3],7.7 nM
same,Activity,Raji [4],86.9%
same,AUCt,[5],31644 ng·h/mL
same,inhibition,[6],88.9%
same,Activity,[7],Non-Toxic
same,IC50,THP-1,20 nM
same,Tmax,[8],18 h
same,IC50,[9],16 nM
same,Activity,[10],Non-Toxic
same,IC50,SUD4,20 nM
same,Drug uptake,[11],Active
same,Activity,[12],Non-Toxic
same,bioavailability,[13],31.1%
same,Activity,Raji [14],64.5%
same,Activity,Raji [15],64.4%
same,"fraction unbound at 5 h, 0.1 µM",[16],0.099
same,Activity,Raji [17],21.3%
same,IC50,Daudi,20 nM
same,Activity,Mus musculus [18],Non-Toxic
same,Activity,Raji [19],70.3%
same,IC50,MV4-11,20 nM
same,inhibition in vivo at 30 mg/kg,Raji [20],81.4%
same,Activity,Mus musculus [21],Non-Toxic
same,Activity,Raji [22],6.2%
same,Drug uptake,[23],Active
same,Activity,Mus musculus [24],Non-Toxic
same,half-life,[25],10.1 h
same,IC50,SU-DHL-6,20 nM
same,Activity,Raji [26],3.3%
same,Activity,[27],Non-Toxic
same,inhibition in vivo at 40 mg/kg,Raji [28],83.6%
same,Activity,[29],Non-Toxic
same,half-life,[30],7.1 h
same,Cmax,[31],1270 ng/mL
same,IC50,HL-60,20 nM
same,CL/F,[32],10 mL/min/kg
same,Activity,Raji [33],58.7%
same,Activity,[34],Non-Toxic
